Experimental data taken from PubChem BioAssay (NCI).
“And” between values parts separate entries of the source, which are not always exact repeats. Equal values may be shown once.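 Five compound concentrations were applied to cells in 96-well plates for 48 hours; endpoints were derived by simple linear interpolation of the resulting dose-response curve. GI50 = concentration required for 50% inhibition of growth. TGI is the concentration that stops growth completely.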

What was measured:
Assay in all cases: NCI tumour cell line growth inhibition, 48 h
ACHN renal = test system: ACHN renal
EKVX NSCLC = test system: EKVX NSCLC
HCC-2998 colon = test system: HCC-2998 colon
LOX IMVI melanoma = test system: LOX IMVI melanoma
NCI-H23 lung = test system: NCI-H23 lung
OVCAR-3 ovarian = test system: OVCAR-3 ovarian
SK-MEL-5 melanoma = test system: SK-MEL-5 melanoma
HCT-116 colon = test system: HCT-116 colon
HOP-92 NSCLC = test system: HOP-92 NSCLC
HS 578T breast = test system: HS 578T breast

SMILES	TGI (ACHN renal)	TGI (EKVX NSCLC) [µM]	TGI (HCC-2998 colon) [µM]	TGI (LOX IMVI melanoma) [µM]	TGI (NCI-H23 lung) [µM]	TGI (OVCAR-3 ovarian)	TGI (SK-MEL-5 melanoma) [µM]	TGI (HCT-116 colon) [µM]	TGI (HOP-92 NSCLC) [µM]	GI50 (ACHN renal) [µM]	GI50 (HCC-2998 colon) [µM]	GI50 (HCT-116 colon)	GI50 (HOP-92 NSCLC) [µM]	GI50 (HS 578T breast) [µM]	TGI (HS 578T breast) [µM]	GI50 (LOX IMVI melanoma) [µM]	GI50 (NCI-H23 lung) [µM]	GI50 (OVCAR-3 ovarian)	GI50 (SK-MEL-5 melanoma) [µM]	GI50 (EKVX NSCLC) [µM]
CCc1oc2ccc(OC)c3c2c1C=CC=C3	> 100 µM	> 100	> 100	> 100	> 100	> 100 µM	> 100													
CC(C)(C)C[P+](C)(C)c1ccccc1	> 100 µM	> 100	> 100	> 100	> 100	> 100 µM	> 100	> 100	> 100											
COC(=O)C1=Cc2c(OC)cc(OC)c(OC)c2[C@H](c2cc(OC)c(OC)cc2OC)C1C(=O)OC (some centres undefined)	> 100 µM	> 100	> 100	> 100	> 100	> 100 µM	> 100	> 100	> 100											
CP(C)C.[Ag][I]	> 100 µM	> 100	> 100	> 100	> 100	> 100 µM	46.4	> 100	> 100											
CCCCCc1c(C)[nH]c(/C=c2\[nH]/c(=C3/C=c4ccccc4=N3)cc2OC)c1C	1.29 µM		5.88	0.0676	3.1	0.699 µM	0.11	1.07	0.203	0.122	0.0452	0.028 µM	0.0236	0.0846	0.883	0.0248	0.236	0.109 µM	0.0324	
N#CC12Cc3ccc4c(c3-c3cccc(c31)CCN2C(=O)c1ccccc1)OCO4 (centres undefined)	> 100 µM	> 100	> 100	> 100	> 100	> 100 µM	> 100	> 100	> 100											
CC1(C)CC2CC(C)(CN2c2ncnc3ccc(Br)cc23)C1 (centres undefined)	27 µM		23.9	26.5	20.8	13.1 µM	21.6		27.3	14.1	11.7		13.4	10.3	30.4	13.7	8.74	2.72 µM	8.88	
Cc1cccc(N=C2NC(=O)C(CC(=O)Nc3ccc(Cl)cc3C)S2)c1 (centres undefined)	> 100 µM	> 100	> 100	> 100	> 100	> 100 µM	> 100													
N#Cc1c(Oc2ccc(F)c(NC(=O)Cc3cccc(C(F)(F)F)c3)c2)ccc2nc(NC(=O)C3CC3)sc12	> 100 µM		> 100		> 100	> 100 µM	8.6	> 100	2.19	0.801	0.581	0.251 µM	0.278	0.534	3.33		0.714	2.3 µM	0.206	
CCOC(=O)N1CCC(=O)C[C@@H]1C/C=C/P1(=O)O[C@H](c2ccccc2)C(C)N1C(C)C (some centres undefined)	> 100 µM	> 100	> 100		> 100	> 100 µM	> 100	> 100	> 100											
CC1=NN(c2ccccc2)C(=O)C1N=Nc1ccc(Br)c(C)c1 (centres undefined)	> 100 µM	> 100	> 100		> 100	> 100 µM	> 100	> 100	> 100											
Cc1ccc(-c2cc(/C=N/O)on2)cc1	> 100 µM	> 100		> 100	> 100	> 100 µM		> 100	> 100	54.8		71.4 µM	47.6	> 100	> 100	53.3	73.1	58.2 µM		43.3
C[C@]12CCCC(=O)C1C[C@H](C(=O)O)CC2 (some centres undefined)	> 100 µM		> 100	> 100	> 100	> 100 µM		> 100	> 100											
O=[N+]([O-])c1cc(/C=N/NS(=O)(=O)c2ccc(F)cc2)c(O)c([N+](=O)[O-])c1	> 100 µM	> 100	> 100	> 100	60.1	68 µM	72	> 100	> 100											
CC12OC3CC(O1)C1(C=O)C4CCC5(C)C(c6ccc(=O)oc6)CCC5(O)C4CCC1(C3)O2 (centres undefined)	0.348 µM		2	0.524		0.384 µM	0.328	0.399	1.71											
O=C1CCC(=O)C(C(=O)CCC(=O)Nc2cccc(Cl)c2)C1 (centres undefined)	> 100 µM	> 100	> 100	> 100	> 100	> 100 µM	> 100	> 100	> 100											
CCS/C(Nc1ccccc1)=C(\C#N)C(=O)N/N=C/c1ccc(Cl)cc1Cl	> 100 µM	> 100	> 100	> 100	> 100	10.7 µM	8.53	> 100		7.08	5.47	2.99 µM		2.74	98.7	5.88	6.47	2.8 µM	2.28	5.09
NC(=O)CCC(NC(=O)C(F)(F)F)C(=O)O (centres undefined)	> 100 µM	> 100	> 100	> 100	> 100	> 100 µM	> 100	> 100	> 100											

SMILES	TGI (ACHN renal)	TGI (EKVX NSCLC) [µM]	TGI (HCC-2998 colon) [µM]	TGI (LOX IMVI melanoma) [µM]	TGI (NCI-H23 lung) [µM]	TGI (OVCAR-3 ovarian)	TGI (SK-MEL-5 melanoma) [µM]	TGI (HCT-116 colon) [µM]	TGI (HOP-92 NSCLC) [µM]	GI50 (ACHN renal) [µM]	GI50 (HCC-2998 colon) [µM]	GI50 (HCT-116 colon)	GI50 (HOP-92 NSCLC) [µM]	GI50 (HS 578T breast) [µM]	TGI (HS 578T breast) [µM]	GI50 (LOX IMVI melanoma) [µM]	GI50 (NCI-H23 lung) [µM]	GI50 (OVCAR-3 ovarian)	GI50 (SK-MEL-5 melanoma) [µM]	GI50 (EKVX NSCLC) [µM]
Cc1cc(C)c2[s+]snc2c1	> 100 µM	> 100	> 100	> 100	> 100	> 100 µM	> 100	> 100												
CC(=O)N[C@@H](Cc1ccc(OP(=O)(O)O)cc1)C(=O)N[C@H]1CCC(=O)N2CCC[C@@H](C(=O)NCc3ccc(O)cc3)N2C1=O	> 25 µM		> 25	> 25	> 25	> 25 µM	> 25	> 25		> 25	> 25	> 25 µM		> 25	> 25	> 25	> 25	> 25 µM	> 25	
CC(C)N(C[C@H]1O[C@@H](n2cnc3c(N)ncnc32)[C@H](O)[C@@H]1O)C1CC(CCc2nc3ccc(C(C)(C)C)cc3[nH]2)C1 (some centres undefined)	> 100 µM		> 100	> 100	> 100	> 100 µM	> 100	> 100	> 100	> 100	> 100	> 68 µM	31.4	> 76.5	> 100	> 71.5	> 100	> 100 µM	> 95.1	
CCN(CC)c1ccc2nc3c4ccccc4c(=NC(=O)c4ccccc4-c4c5ccc(N(CC)CC)cc5[o+]c5cc(N(CC)CC)ccc45)cc-3oc2c1	13.7 µM	> 32.6	3.82	4.49	6.13	6.26 µM	2.68	> 22.4	19.4	3.97	1.62	1.88 µM	3.51			1.69	1.88	0.85 µM	1.26	3.52
OC1C2C=CCC1CCC2 (centres undefined)	> 100 µM	> 100		> 100	> 100	> 100 µM	> 100	> 100	> 100											
CC(C)CNc1nc(N=[N+]=[N-])nc(NCC(C)C)n1	> 10 µM		> 10	> 10	> 10	> 10 µM	> 10	> 10	> 10	> 10	> 10	> 10 µM	7.89	> 10	> 10	> 10	> 10	> 10 µM	> 10	
CCOC(=O)C1(Cc2ccc3ccccc3c2)CCCCCN1 (centres undefined)	> 100 µM	> 100	57.3	39.6	> 100	> 100 µM			55.4											
CC[C@@]1(OC(=O)CN)C(=O)OCc2c1cc1n(c2=O)Cc2cc3c(N)c4c(cc3nc2-1)OCO4	0.104 µM and 0.0152 µM		0.969			0.481 µM and 0.336 µM	0.139	> 100		< 0.0001	0.0116	0.000318 µM		0.232		< 0.0001	< 0.0001	0.0352 µM and 0.0116 µM	0.000182	0.0808
CS[C@@]1(C(=O)Nc2ccc3[nH]nc(-c4ccc(OC(C)C)nc4)c3c2)CCN(CC(=O)N2CC=C(c3ccc(-c4ncn(C)n4)cc3)CC2)C1	> 100 µM		> 100	8.28	> 100	> 100 µM	> 89.9	> 100	1.66	37.8	0.131	0.161 µM	0.228			0.204	0.16	> 100 µM	1.03	
O=C(NO)c1cnc(N2CCN(S(=O)(=O)c3ccc4ccccc4c3)CC2)nc1	0.595 µM		0.32		0.897	0.386 µM	0.15	10.1	0.0857	0.0723	0.11	0.03 µM	0.0202	0.101	> 47.3		0.103	0.0955 µM	0.0396	
CCOC(=O)C(Cc1ccc(OC)cc1)C(=O)OCC	22.3 µM	23.7	12.4	13.7	14.9	11.6 µM	15.3	15.6	30.4	7.33	4.81	4.45 µM	6.93			3.56	3.63	3.59 µM	3.65	5.84
CCOC(=O)CNC(=O)C(CSC(=O)N(C)O)NC(=O)CCC(N)C(=O)O (centres undefined)	> 2000 µM	> 2000			> 2000	> 2000 µM	> 2000		> 2000	> 2000		> 2000 µM	> 2000			> 2000	> 2000	> 2000 µM	> 2000	> 2000
Cc1sc(/N=C2/NC(=O)CS2)nc1-c1nc(/N=C2/NC(=O)CS2)sc1C	> 50 µM	> 50		> 50	> 50	> 50 µM	> 50	> 50		> 50		15.7 µM		2.17	36.3	> 50	> 50	> 50 µM	31.2	1.33
C[C@@H](Oc1cc(-c2cnn(C3CC4(CCCNC4)C3)c2)cnc1N)c1c(Cl)ccc(F)c1Cl (some centres undefined)	4.49 µM		3.14	2.5	3.41	5.08 µM	2.87	2.23	3.42	1.57	1.51	0.741 µM	0.807	1.63	4.47	1.17	1.14	2.02 µM	1.5	
O=c1[nH]c2c(O)cccc2c2cc3c(c(O)c12)OCO3	49.4 µM	77.4	56.1	38.9		45.2 µM	> 100	54.1	63.9											
CC(C)[O-].CC(C)[O-].[O-]c1cccc2cccnc12.[O-]c1cccc2cccnc12.[Ti+4]	> 100 µM	> 100	> 100	> 100	> 100	> 100 µM		> 100	50.3	88.6	50.4	3.24 µM and 3.87 µM	14.3			74	> 100	15.4 µM	25.2	> 100
Cc1cc2c(cc1C)[n+]([O-])c(-c1c(Cl)cccc1Cl)c(N)[n+]2[O-]	> 100 µM	> 100	> 100	> 100	75.8	99.5 µM	41.7		> 100											
